Results from patent US6605589B1, “Cathepsin inhibitors in cancer treatment” (Parker Hughes Institute, priority 2000, dated 2003).

Experiments:
Type in all cases: cell-based, human
[1] = system: K562 cells; assay: Flow cytometric apoptosis detection in p53 deficient cells; settings: K-562, p53 deficient
Protocol: (§1) Quantitative flow cytometric apoptosis detection assays were performed on BT-20 (breast cancer), PC-3 (prostate cancer), U373 (glioblastoma), SQ20B (squamous cell carcinoma), HeLa (cervix cancer), and DU145 (prostate cancer). Just prior to the assay, one mg/ml stock solutions of MC540 (Sigma, St. Louis, Mo.) and PI (Sigma, St. Louis, Mo.) were filtered through a 0.22 μm filter and stored at 4° C. in the dark. CATI-1 treated cell lines was harvested, and 1×10^6 cells suspended and stained with 5 μg/ml MC540 and 10 μg/ml propidium iodide (PI) (Uckun et al. (1996) Science, 273: 1096-1100) at 4° C. in the dark for 24 hours. Stained cells were analyzed with a FACStar Plus flow cytometer (Becton Dickinson, San Jose, Calif.) using the 488-nm excitation from an argon laser. MC540 and PI emissions were split with a 600-nm short pass diachronic mirror; a 575-nm band pass filter was placed in front of one photomultiplier tube to measure MC540 emission, and 635-nm band pass filter was used for PI emission. In each experiment approximately 10,000 cells were analyzed by FACS and the percentage of cells at early (MC540 fluorescence only) and advanced (dual MC540 plus PI fluorescence) stages of apoptosis obtained.
(§2) Effects of CATI-1 were investigated on a lung squamous carcinoma cell line, NCI-H520 cells, and a chronic myeloid leukemia cell line, K562 cells.

[2] = system: NCI-H520 cells; assay: as above
Protocol: as §1, §2

[3] = system: SQ20B (squamous cell carcinoma); assay: Quantitative flow cytometric apoptosis detection assay (MC540/PI); settings: 0 to 100 μM, FIGS. 1-3
Protocol: as §1

[4] = system: HeLa (cervix cancer); assay: as above; settings: 0 to 100 μM, FIGS. 1-3
Protocol: as §1

[5] = system: PC-3 (prostate cancer); assay: as above; settings: 0 to 100 μM, FIGS. 1-3
Protocol: as §1

[6] = system: U373 (glioblastoma); assay: as above; settings: 0 to 100 μM, FIGS. 1-3
Protocol: as §1

[7] = system: BT-20 (breast cancer); assay: as above; settings: 0 to 100 μM, FIGS. 1-3
Protocol: as §1

[8] = system: DU145 (prostate cancer); assay: as above; settings: 0 to 100 μM, FIGS. 1-3
Protocol: as §1

[9] = system: all tested cell lines, solid and blood cell; assay: In vitro clonogenic assay, all tested cell lines; settings: JURKAT, KM3, DAUDI, RAJI (BAX deficient)
Protocol: (§3) In vitro clonogenic assays were carried out to determine the cytotoxic activity of the cathepsin inhibitor I (CATI-1) (Z-Phe-Gly-NHO-Bz) against cancer cells. The cancer cell lines used in the assay were U373 (glioblastoma), BT-20 (breast cancer), SQ20B (squamous cell carcinoma), RS4;11 (pro-B ALL), ALL-1 (pre-pre-B ALL), KM-3, MOLT-3 (T-ALL), JURKAT (T-ALL), K-562 (CML), HL-60 (AML), DAUDI (NHL), RAMOS (NHL) and RAJI (NHL). Each cell line was treated under several concentrations of CATI-1 for 24 hours, washed with serum free medium and resuspended in clonogenic medium having 10% fetal bovine serum and 0.9% methylcellulose. Resuspended cells were plated in duplicate 35-mm Petri dishes at 10,000 to 20,000 cells per dish and cultured at 37° C. in a humidified 5% CO2 atmosphere for 5 to 7 days.
(§4) Images of colonies in each dish were taken by a digital camera (Princeton Instruments, Inc.) linked to a microscope (Nikon Diaphot 200). Colony numbers were determined using an inverted phase microscope and percent inhibition of colony formation determined using the formula:
% inhibition=(1−(colony number in test sample/colony number in control sample))×100. […]

[10] = system: all tested cancer cell lines; assay: Cytometric apoptosis detection assays, FIG. 2; settings: FIG. 2 (SQ-20B, HeLa, PC-3, BT-20)
Protocol: The percentages indicate the fraction of cells at an early stage of apoptosis (lower right quadrant), as measured by single MC540 fluorescence, and the fraction of cells at an advanced stage of apoptosis (upper right quadrant).
as §1, with “MC540 and PI emissions were split with a 600-nm short pass diachronic mirror; a 575-nm band pass filter was placed in front of one photomultiplier tube to measure MC540 emission, and 635-nm band pass filter was used for PI emission.” left out

[11] = system: BT-20 cells; assay: TUNEL assay (DNA cleavage); settings: 50 μM and 100 μM CATI-1, FIG. 3
Protocol: (§5) DNA cleavage as an indicator of apoptosis was determined using the in situ terminal deoxynucleotidyl transferase (TdT)-mediated dUTP nick-end-labeling method (TUNEL assay) of Boehringer Mannheim (Cell Death Detection Kit) as described in Zhu et al. (1999) Clin. Can. Res., 5:355-360. Briefly, CATI-1 treated cells and control cells were harvested and resuspended in phosphate-buffered saline (PBS) at a density of 5×10^6 cells/ml. Fifty μl of each cell suspension was placed into a PAP Pen (Zymed Laboratories Inc., South San Francisco, Calif.)-circled area on Superfrost/Plus slide (Fisher Scientific, Pittsburgh, Pa.) that was coated for cell adhesion. Cells were allowed to adhere to the slide for 10 minutes, washed with PBS and fixed with a 4% paraformadehyde in PBS solution for 20 minutes. After washing the slides twice with PBS, the cells were permeabilized by treatment with 100 μl of 20 mM SDS in PBS for 10 minutes. […] However, non-apoptotic cells incorporate only insignificant amounts of FITC-labeled dUTP due to the lack of exposed 3′-hydroxyl ends in intact DNA and consequently have much less green fluorescence than apoptotic cells. DNA bound PI emits strong red nuclear fluorescence from all the cells.

[12] = system: SQ20B cells; assay: TUNEL assay (DNA cleavage); settings: 50 μM and 100 μM CATI-1, FIG. 3
Protocol: as §5

[13] = system: K-562 (CML); assay: In vitro clonogenic assay; settings: for %, inhibition / Mean no, of colonies: 24 hours
Protocol: as §3, §4
(§6) % inhibition=(1−(colony number in test sample/colony number in control sample))×100.

[14] = system: SQ20B (neck cancer); assay: In vitro clonogenic assay; settings: 24 hours
Protocol: as §3, §4, §6

[15] = system: RAMOS (NHL); assay: In vitro clonogenic assay; settings: for %, inhibition / Mean no, of colonies: 24 hours
Protocol: as §3, §4, §6

[16] = system: MOLT-3 (T-ALL); assay: In vitro clonogenic assay; settings: for %, inhibition / Mean no, of colonies: 24 hours
Protocol: as §3, §4, §6

[17] = system: RS4;11 (pro-B ALL); assay: In vitro clonogenic assay; settings: for %, inhibition / Mean no, of colonies: 24 hours
Protocol: as §3, §4, §6

[18] = system: KM-3 (pre-B ALL); assay: In vitro clonogenic assay; settings: 24 hours
Protocol: as §3, §4, §6

[19] = system: ALL-1 (pre-pre B ALL); assay: In vitro clonogenic assay; settings: for %, inhibition / Mean no, of colonies: 24 hours
Protocol: as §3, §4, §6

[20] = system: RAJI (NHL); assay: In vitro clonogenic assay; settings: for %, inhibition / Mean no, of colonies: 24 hours
Protocol: as §3, §4, §6

[21] = system: HL-60 (AML); assay: In vitro clonogenic assay; settings: CATI-1 10 uM, 24 hours
Protocol: as §3, §4, §6

[22] = system: DAUDI (NHL); assay: In vitro clonogenic assay; settings: CATI-1 10 uM, 24 hours
Protocol: as §3, §4, §6

[23] = system: JURKAT (T-ALL); assay: In vitro clonogenic assay; settings: for %, inhibition / Mean no, of colonies: 24 hours
Protocol: as §3, §4, §6

[24] = system: BT-20 (breast cancer); assay: In vitro clonogenic assay; settings: 24 hours
Protocol: as §3, §4, §6

[25] = system: U373 (brain tumor); assay: In vitro clonogenic assay; settings: 24 hours
Protocol: as §3, §4, §6

[26] = read-out: IC50 (colony formation)

EC50 [1]: ~20 µM
EC50 [2]: 55 µM
IC50 [13, 26]: 15.4 µM
IC50 [15, 26]: 10.1 µM
IC50 [16, 26]: 5.5 µM
IC50 [17, 26]: 14.6 µM
%, inhibition ([18]; CATI-1 10 uM): 79.2%
Mean no, of colonies ([18]; CATI-1 10 uM): 578 (520, 636)
%, inhibition ([18]; CATI-1 20 uM): 100%
Mean no, of colonies ([18]; CATI-1 20 uM): 0 (0, 0)
IC50 [19, 26]: 6.2 µM
IC50 [20, 26]: 5.8 µM
IC50 [23, 26]: 14.5 µM
SMILES: O=C(CNC(=O)[C@H](Cc1ccccc1)NC(=O)OCc1ccccc1)NOC(=O)c1ccccc1 [CATI-1, Z-Phe-Gly-NHO-Bz]
induction of apoptosis [3]: induces apoptosis
induction of apoptosis [4]: induces apoptosis
induction of apoptosis [5]: induces apoptosis
induction of apoptosis [6]: induces apoptosis
induction of apoptosis [7]: induces apoptosis
induction of apoptosis [8]: induces apoptosis
susceptibility of BAX deficient cell lines to CATI-1 [9]: highly susceptible
induction of apoptosis [10]: induced apoptosis
DNA fragmentation (TUNEL) [11]: nuclear green fluorescence consistent with DNA fragmentation
DNA fragmentation (TUNEL) [12]: nuclear green fluorescence consistent with DNA fragmentation
%, inhibition ([13]; CATI-1 10 uM): 19.0%
Mean no, of colonies ([13]; CATI-1 10 uM): 3806 (3980, 3632)
%, inhibition ([13]; CATI-1 20 uM): 76.9%
Mean no, of colonies ([13]; CATI-1 20 uM): 1086 (1196, 976)
%, inhibition ([13]; CATI-1 35 uM): 99.8%
Mean no, of colonies ([13]; CATI-1 35 uM): 10 (12, 8)
%, inhibition ([14]; CATI-1 50 uM): 40%
Mean no, of colonies ([14]; CATI-1 50 uM): 1838 (1732, 1944)
%, inhibition ([14]; CATI-1 100 uM): 90%
Mean no, of colonies ([14]; CATI-1 100 uM): 306 (280, 332)
%, inhibition ([15]; CATI-1 10 uM): 47.1%
Mean no, of colonies ([15]; CATI-1 10 uM): 1442 (1344, 1540)
%, inhibition ([15]; CATI-1 20 uM): 78.2%
Mean no, of colonies ([15]; CATI-1 20 uM): 594 (660, 528)
%, inhibition ([15]; CATI-1 35 uM): 100%
Mean no, of colonies ([15]; CATI-1 35 uM): 0 (0, 0)
%, inhibition ([16]; CATI-1 10 uM): 90.8%
Mean no, of colonies ([16]; CATI-1 10 uM): 194 (124, 264)
%, inhibition ([16]; CATI-1 20 uM): 99.1%
Mean no, of colonies ([16]; CATI-1 20 uM): 18 (16, 20)
%, inhibition ([16]; CATI-1 35 uM): 100%
Mean no, of colonies ([16]; CATI-1 35 uM): 0 (0, 0)
%, inhibition ([17]; CATI-1 10 uM): 10.6%
Mean no, of colonies ([17]; CATI-1 10 uM): 2676 (2160, 3192)
%, inhibition ([17]; CATI-1 20 uM): 96.8%
Mean no, of colonies ([17]; CATI-1 20 uM): 96 (116, 76)
%, inhibition ([17]; CATI-1 35 uM): 100%
Mean no, of colonies ([17]; CATI-1 35 uM): 0 (0, 0)
%, inhibition ([19]; CATI-1 10 uM): 80.4%
Mean no, of colonies ([19]; CATI-1 10 uM): 338 (348, 328)
%, inhibition ([19]; CATI-1 20 uM): 99.6%
Mean no, of colonies ([19]; CATI-1 20 uM): 7 (6, 8)
%, inhibition ([19]; CATI-1 35 uM): 100%
Mean no, of colonies ([19]; CATI-1 35 uM): 0 (0, 0)
%, inhibition ([20]; CATI-1 10 uM): 86.5%
Mean no, of colonies ([20]; CATI-1 10 uM): 168 (124, 212)
%, inhibition ([20]; CATI-1 20 uM): 97.4%
Mean no, of colonies ([20]; CATI-1 20 uM): 32 (40, 24)
%, inhibition ([20]; CATI-1 35 uM): 100%
Mean no, of colonies ([20]; CATI-1 35 uM): 0 (0, 0)
%, inhibition [21]: 100%
Mean no, of colonies [21]: 0 (0, 0)
%, inhibition [22]: 100%
Mean no, of colonies [22]: 0 (0, 0)
%, inhibition ([23]; CATI-1 10 uM): 10.0%
Mean no, of colonies ([23]; CATI-1 10 uM): 5110 (5260, 4960)
%, inhibition ([23]; CATI-1 20 uM): 98.9%
Mean no, of colonies ([23]; CATI-1 20 uM): 64 (40, 88)
%, inhibition ([23]; CATI-1 35 uM): 100%
Mean no, of colonies ([23]; CATI-1 35 uM): 0 (0, 0)
%, inhibition ([24]; CATI-1 50 uM): 95%
Mean no, of colonies ([24]; CATI-1 50 uM): 177 (154, 200)
%, inhibition ([24]; CATI-1 100 uM): 100%
Mean no, of colonies ([24]; CATI-1 100 uM): 0
%, inhibition ([25]; CATI-1 30 uM): 97%
Mean no, of colonies ([25]; CATI-1 30 uM): 76 (84, 67)
%, inhibition ([25]; CATI-1 50 uM): 100%
Mean no, of colonies ([25]; CATI-1 50 uM): 0
